Laboratory results reported in patent publication US7022736B2, “Enzyme inhibitors” (Istituto Di Ricerche Di Biologia Molecolare P Angeletti SpA, priority 1998, dated 2006).
Like-named read-outs stand apart in the source and are kept apart here.

Experiments:
[1] = target: T1, HCV RdRp (NS5B RNA-dependent RNA polymerase) (Hepatitis C virus genotype 1b, UniProt P26663); assay: Inhibition of hepatitis C virus RdRp (poly(A)/oligo(U), [3H]UTP incorporation); type: biochemical
T1 construct: The HCV NS5B protein is the viral RdRp; made in house; host or cells: insect cells infected with recombinant baculovirus
T1 sequence (P26663 2420-3010): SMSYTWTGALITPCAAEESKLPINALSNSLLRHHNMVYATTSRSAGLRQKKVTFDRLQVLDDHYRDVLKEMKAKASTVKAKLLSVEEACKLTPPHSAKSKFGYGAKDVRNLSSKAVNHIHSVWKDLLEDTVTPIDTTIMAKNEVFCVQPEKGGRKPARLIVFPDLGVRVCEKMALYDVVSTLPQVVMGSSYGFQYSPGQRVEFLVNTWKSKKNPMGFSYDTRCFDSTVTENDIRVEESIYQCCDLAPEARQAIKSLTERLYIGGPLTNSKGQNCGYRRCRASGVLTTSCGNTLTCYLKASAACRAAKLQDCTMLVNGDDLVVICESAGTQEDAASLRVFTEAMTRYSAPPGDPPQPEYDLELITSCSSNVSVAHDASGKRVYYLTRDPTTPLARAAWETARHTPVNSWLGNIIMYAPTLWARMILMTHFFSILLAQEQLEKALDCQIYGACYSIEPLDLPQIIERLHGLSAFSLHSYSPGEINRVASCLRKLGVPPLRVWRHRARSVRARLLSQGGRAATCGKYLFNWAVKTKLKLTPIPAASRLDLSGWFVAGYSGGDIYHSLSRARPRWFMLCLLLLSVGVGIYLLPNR
Method: In initial tests, the compounds were tested to see if they were effective as inhibitors of the RNA-dependent RNA polymerase (RdRp) of hepatitis C virus (HCV). The HCV NS5B protein is the viral RdRp; compounds capable of interfering with the activity of this enzyme are thus expected to block viral replication.
Test for Inhibition of Hepatatis C Virus RdRp
WO96/37619 describes the production of recombinant HCV RdRp from insect cells infected with recombinant baculovirus encoding the enzyme. […] The reference describes a polymerisation assay using poly (A) as a template and oligo (U) as a primer. Incorporation of tritiated UTP is quantified by measuring acid-insoluble radioactivity. The present inventors have employed this assay to screen the various compounds described above as inhibitors of HCV RdRp and other virally encoded polymerases.
Incorporation of radioactive UMP was measured as follows. The standard reaction (100 μl) was carried out in a buffer containing 20 mM tris/HCl pH 7.5, 5 mM MgCl2, 1 mM DTT, 50 mM NaCl, 1 mM EDTA, 2 OU Rnasin (Promega), 0.05% Triton X-100, 1 μCi[^3H] UTP (40 Ci/mmol,NEN), 10 μM UTP and 10 μg/ml poly (A). Oligo (U)12 (1 μg/ml, Genset) was added as a primer. The final NSSB enzyme concentration was 20 nM. After 1 hour incubation at 22° C. the reaction was stopped by adding 100 μl of 20% TCA and applying samples to DE81 filters. The filters were washed thoroughly with 5% TCA containing 1M Na2HPO4/NaH2PO4, pH 7.0, rinsed with water and then ethanol, air dried, and the filter-bound radioactivity was measured in the scintillation counter. By carrying out the reaction in the presence of various concentrations of each of the compounds set out above it was possible to determine IC50 values for each compound with the formula: % residual activity=100/(1+[I]/IC50)^s where [I] is the inhibitor concentration and “s” is the slope of the inhibition curve. Test for Inhibition of Hepatitis B Virus Polymerase

[2] = target: T2, reverse transcriptase of HIV (HIV-1 RT) (Human immunodeficiency virus type 1 group M subtype B, UniProt P03366); assay: Inhibition of HIV-1 reverse transcriptase ([3H]dTTP incorporation); type: biochemical, Human Immunodeficiency Virus-1; details: Tables IXa-IXc; unit inferred; NA=not active as an inhibitor
T2 construct: the reverse transcriptase of HIV (HIV -1RT) from Boehringer Mannhium; purchased Boehringer Mannheim (printed 'Boehringer Mannhium')
Method: Test for Inhibition of Human Immunodeficiency Virus-1 Reverse Transcriptase
Analogous assays employed the reverse transcriptase of HIV (HIV -1RT) from Boehringer Mannhium.
Incorporation of radioactive dTTP was measured as follows. The standard reaction (100 μl) was carried out in a buffer containing 50 mM tris/HCl pH 8.2, 2.5 mM MgCl 2, 1 mM DTT, 80 mM KCl, 5 mM EGTA, 0.05% Triton X-100, 1 μCi[3H] dTTP (40 Ci/mmol, NEN), 10 μM […] and 10 μg/ml poly(A)/dT (from Pharmacia).

[3] = Tables I-VIII, 20 nM NS5B, 1 hour at 22° C., read-out: IC 50 (μM), HCV-polymerase
[4] = Tables IXa-IXc, unit inferred, read-out: HCV (IC50)

SMILES	IC50 [1, 3]	IC50 [1, 4]	IC50 [2]	IC50 [1]
O=C(O)C(O)=CC(=O)c1ccccc1 [Example 1]	5.6 µM	5.6 µM	90 µM	
O=C(O)C(O)=CC(=O)c1cccc(OCc2ccccc2)c1 [Example 4]	8 µM	8 µM	> 100 µM	
O=C(O)C(O)=CC(=O)c1cccc(OCc2c(F)cccc2F)c1 [Example 7]	2.92 µM	3.3 µM	61 µM	
O=C(O)C(O)=CC(=O)c1ccccc1OCc1ccccc1 [Example 8]	44 µM	44 µM	19 µM	
C=CCOc1ccccc1C(=O)C=C(O)C(=O)O [Example 16]	4.3 µM	4.3 µM	> 100 µM	
O=C(O)C(O)=CC(=O)c1cccc(OCCc2ccccc2)c1 [Example 18]	2.2 µM	2.2 µM	30 µM	
Cc1cccc(C(=O)C=C(O)C(=O)O)c1 [Example 19]	11.9 µM	12 µM	77 µM	
N#CCCCOc1ccccc1C(=O)C=C(O)C(=O)O [Example 20]	0.38 µM	0.38 µM	27 µM	
Cc1ccc(OCCCC#N)c(C(=O)C=C(O)C(=O)O)c1 [Example 21]	0.955 µM	1 µM	> 50 µM	
O=C(O)C(O)=CC(=O)c1cccc(O)c1 [Example 23]	0.94 µM	1 µM	59 µM	
O=C(O)C(=O)Nc1cccc(C(=O)C=C(O)C(=O)O)c1 [Example 24]	19 µM	19 µM	71 µM	
O=C(O)CCCOc1ccccc1C(=O)C=C(O)C(=O)O [Example 27]	2.84 µM	3 µM	> 50 µM	
N#CCCCOc1ccc(Cl)cc1C(=O)C=C(O)C(=O)O [Example 36]	1.6 µM	1.6 µM	24 µM	
O=C(O)C(O)=CC(=O)c1ccccc1Cc1ccc(F)cc1 [Example 40]	8.3 µM	8.3 µM	12 µM	
N#CCCCOc1ccc(O)cc1C(=O)C=C(O)C(=O)O [Example 53]	0.115 µM	0.115 µM	37 µM	
O=C(O)C(O)=CC(=O)c1cccc(NS(=O)(=O)c2cccc3ccccc23)c1 [Example 78]	0.67 µM	0.67 µM	35 µM	
O=C(O)C(O)=CC(=O)c1sccc1Cl [Example 194]	16 µM			
O=C(O)C(O)=CC(=O)c1sccc1Br [Example 199]	17 µM			
Cc1csc2sc(C(=O)C=C(O)C(=O)O)c(C)c12 [Example 201]	20 µM			
C=CCN(CC=C)c1ccc(C(=O)C=C(O)C(=O)O)s1 [Example 203]	19.8 µM			
O=C(O)C(O)=CC(=O)c1ccc(Cc2cccc(Cl)c2)s1 [Example 211]	82 µM			
O=C(O)C(O)=CC(=O)c1cc2c(s1)CCCC2c1ccccc1 (stereo not drawn) [Example 214]	17 µM			
O=C(O)C(O)=CC(=O)c1ccc(N2CCc3ccccc3C2)s1 [Example 215]	15.3 µM			
O=C(O)C(=O)CC(=O)c1ccco1 [Example 216]				50 µM

SMILES	IC50 [1, 3]	IC50 [1, 4]	IC50 [2]	IC50 [1]
Cc1ccc(C(=O)CC(=O)C(=O)O)o1 [Example 217]	58 µM			
Cc1c[nH]c(C)c1C(=O)C=C(O)C(=O)O [Example 219]	23.7 µM			
Cn1cc(C(=O)C=C(O)C(=O)O)cc1Cc1cccc(F)c1 [Example 221]	20.6 µM			
O=C(O)C(O)=CC(=O)c1cc(Cl)sc1Cl [Example 224]	50 µM			
Cc1ccc(-c2sccc2C(=O)C=C(O)C(=O)O)cc1 [Example 226]	17 µM			
O=C(O)C(O)=CC(=O)c1ccsc1Cc1cccs1 [Example 227]	15 µM			
O=C(O)C(O)=CC(=O)c1ccsc1Cc1ccc(F)cc1 [Example 228]	17.8 µM			
O=C(O)C(O)=CC(=O)c1ccsc1Cc1cccc(F)c1 [Example 229]	80 µM			
O=C(O)C(O)=CC(=O)c1ccsc1Sc1ccc(F)cc1 [Example 234]	14.5 µM			
O=C(O)C(O)=CC(=O)c1csc2ccccc12 [Example 236]	26 µM			
CCC(C)C(=O)/C=C(\O)C(=O)O (stereo not drawn) [Example 240]	18 µM			
CC(C)(C)C(=O)C=C(O)C(=O)O [Example 241]	37 µM			
O=C(O)C(O)=CC(=O)C(c1ccccc1)c1ccccc1 [Example 244]	77 µM			
CCCCS(=O)(=O)N1CCCC(Cc2ccc(Cl)cc2)(C(=O)C=C(O)C(=O)O)C1 (stereo not drawn) [Example 245]	81.4 µM			
O=C(O)C(O)=CC(=O)C1(c2ccccc2)CCN(S(=O)(=O)c2cccc(Cl)c2)CC1 [Example 246]	18 µM			
O=C(O)/C(O)=C/C(=O)C1(Cc2ccc(Cl)cc2)CCCN(Cc2ccccc2)C1 (stereo not drawn) [Example 247]	45 µM			
O=C(O)C(O)=CC(=O)C1(c2ccccc2)CCN(C(=O)N(c2ccccc2)c2ccccc2)CC1 [Example 249]	60 µM			
O=C(O)C(O)=CC(=O)C1(c2ccccc2)CCN(S(=O)(=O)c2ccc(Cl)c(Cl)c2)CC1 [Example 250]	17 µM			
O=C(O)C(O)=CC(=O)C1(c2ccccc2)CCN(S(=O)(=O)c2cc(Cl)c(Cl)cc2Cl)CC1 [Example 251]	21 µM			
O=C(O)/C(O)=C/C(=O)C1(Cc2ccc(Cl)cc2)CCCN(S(=O)(=O)c2ccc(Br)cc2)C1 (stereo not drawn) [Example 252]	61 µM			
CC1=C(C(=O)C=C(O)C(=O)O)CCC1 [Example 255]	16.7 µM			
O=C(O)C(O)=CC(=O)C1CCCCC1 [Example 256]	25 µM			
O=C(C=C(O)C(=O)O)CC1CCCCC1 [Example 257]	50 µM			

More lines, main results first:

IC50 [1, 3]	SMILES	IC50 [1, 4]	IC50 [2]	IC50 [1]
8.2 µM	Cc1cc(C)c(C(=O)C=C(O)C(=O)O)s1 [Example 192]	8.2 µM		
12 µM	O=C(O)C(O)=CC(=O)c1ccc(Cl)s1 [Example 193]			
11.1 µM	O=C(O)C(O)=CC(=O)c1ccc(N2CCCC2)s1 [Example 195]			
11 µM	O=C(O)C(O)=CC(=O)c1cc(-c2cccnc2)cs1 [Example 197]			
7.9 µM	O=C(O)C(O)=CC(=O)c1ccc(Br)s1 [Example 198]	7.9 µM		
8.2 µM	O=C(O)C(O)=CC(=O)c1ccc(N2CCCCC2)s1 [Example 200]			
11 µM	O=C(O)C(O)=CC(=O)c1cc2c(s1)-c1ccccc1CC2 [Example 204]			
9.9 µM	O=C(O)C(O)=CC(=O)c1sccc1Cc1cccc(F)c1 [Example 207]			
11.6 µM	O=C(O)C(O)=CC(=O)c1sccc1Cc1ccc(F)cc1 [Example 208]			
12.6 µM	O=C(O)C(O)=CC(=O)c1sccc1Sc1ccccc1 [Example 209]			
7.5 µM	O=C(O)C(O)=CC(=O)c1sccc1Cc1cccc(Cl)c1 [Example 212]			
5.9 µM	O=C(O)C(O)=CC(=O)c1sccc1Sc1cccc(F)c1 [Example 213]			
4.6 µM	N#Cc1cccc(Cn2ccc(C(=O)C=C(O)C(=O)O)c2)c1 [Example 220]			
4 µM	O=C(O)C(O)=CC(=O)c1ccsc1 [Example 222]			
8.6 µM	O=C(O)C(O)=CC(=O)c1ccsc1Cc1ccccc1F [Example 230]			
9.4 µM	O=C(O)C(O)=CC(=O)c1ccsc1Cc1ccc(Cl)cc1 [Example 231]			
11.8 µM	O=C(O)C(O)=CC(=O)c1ccsc1Cc1cccc(Cl)c1 [Example 232]			
9.2 µM	O=C(O)C(O)=CC(=O)c1ccsc1Cc1ccccc1Cl [Example 233]			
7.5 µM	O=C(O)C(O)=CC(=O)c1ccsc1Sc1cccc(Cl)c1 [Example 235]			
14 µM	Cc1cc(C(=O)C=C(O)C(=O)O)c(C)o1 [Example 237]			
9.4 µM	CC1(C(=O)C=C(O)C(=O)O)CC1 [Example 239]			
12.8 µM	CC1=CCC(C(=O)C=C(O)C(=O)O)CC1 (stereo not drawn) [Example 242]			
10 µM	O=C(O)C(O)=CC(=O)C1(c2ccccc2)CCN(S(=O)(=O)c2cccc3cccnc23)CC1 [Example 248]			
14 µM	O=C(O)C(O)=CC(=O)C1=CCCCC1 [Example 254]			
